From ChEMBL document CHEMBL1201862, “PubChem BioAssay data set” (2004)
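Test compounds were applied to cells in 96-well plates for 48 hours at 5 doses. At the GI50, growth is halved.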 Active and inactive are the calls of the source. Rule as the data show it: active = GI50 up to about 1.1 µM and inactive = higher.

Tests used:
Assay in all cases: growth of human tumour cells (NCI), 48 h
MDA-N = system: MDA-N
786-0 = system: 786-0
CAKI-1 = system: CAKI-1
DU-145 = system: DU-145
OVCAR-8 = system: OVCAR-8
A498 = system: A498
NCI/ADR-RES = system: NCI/ADR-RES
OVCAR-5 = system: OVCAR-5
SK-OV-3 = system: SK-OV-3
K562 = system: K562
HL-60 = system: HL-60
NCI-H522 = system: NCI-H522
HCC 2998 = system: HCC 2998
SW-620 = system: SW-620
SK-MEL-28 = system: SK-MEL-28
MDA-MB-435 = system: MDA-MB-435
IGROV-1 = system: IGROV-1
OVCAR-4 = system: OVCAR-4
HOP-92 = system: HOP-92
MCF7 = system: MCF7
SNB-19 = system: SNB-19
SNB-75 = system: SNB-75
Malme-3M = system: Malme-3M
UO-31 = system: UO-31
NCI-H460 = system: NCI-H460
OVCAR-3 = system: OVCAR-3
COLO 205 = system: COLO 205
NCI-H226 = system: NCI-H226
UACC-257 = system: UACC-257
NCI-H23 = system: NCI-H23
U-251 = system: U-251
SN12C = system: SN12C
SK-MEL-5 = system: SK-MEL-5
HT-29 = system: HT-29
HCT-116 = system: HCT-116
ACHN = system: ACHN
MDA-MB-231 = system: MDA-MB-231
PC-3 = system: PC-3
CCRF-CEM = system: CCRF-CEM
LOX IMVI = system: LOX IMVI
UACC-62 = system: UACC-62
HCT-15 = system: HCT-15
RXF 393 = system: RXF 393
MOLT-4 = system: MOLT-4
SF-268 = system: SF-268
SF-539 = system: SF-539
SK-MEL-2 = system: SK-MEL-2
SF-295 = system: SF-295
KM12 = system: KM12
EKVX = system: EKVX
T47D = system: T47D
BT-549 = system: BT-549
A549 = system: A549
TK-10 = system: TK-10
Hs-578T = system: Hs-578T
M14 = system: M14
HOP-62 = system: HOP-62

Measured: GI50

O=C1c2c(Br)sc(Br)c2C(NC(=O)C(F)(F)F)C1O (stereo not drawn)
16.7 µM: HCT-15
inactive: MDA-N 19.1 µM | 786-0 19.3 µM | CAKI-1 17.5 µM | DU-145 20.5 µM | OVCAR-8 20.3 µM | A498 > 100 µM | NCI/ADR-RES 29.1 µM | OVCAR-5 19.7 µM | SK-OV-3 19.3 µM | K562 12.1 µM | HL-60 8.39 µM | NCI-H522 13.3 µM | HCC 2998 18.2 µM | SW-620 17.8 µM | SK-MEL-28 21.8 µM | MDA-MB-435 23.5 µM | IGROV-1 20.2 µM | OVCAR-4 19.9 µM | HOP-92 18.8 µM | MCF7 22.8 µM | SNB-19 24.4 µM | SNB-75 27.9 µM | Malme-3M 20.2 µM | UO-31 22.4 µM | NCI-H460 20.4 µM | OVCAR-3 19.3 µM | COLO 205 16.8 µM | NCI-H226 29.5 µM | UACC-257 19.3 µM | NCI-H23 22.6 µM | U-251 19.5 µM | SN12C 18.7 µM | SK-MEL-5 19.5 µM | HT-29 24.7 µM | HCT-116 18.1 µM | ACHN 29.5 µM | MDA-MB-231 19.2 µM | PC-3 26.1 µM | CCRF-CEM 26.3 µM | LOX IMVI 21.8 µM | UACC-62 20.3 µM | RXF 393 13.3 µM | MOLT-4 31.3 µM | SF-268 34 µM | SF-539 15.7 µM | SK-MEL-2 16.7 µM | SF-295 18.7 µM | KM12 30.1 µM | EKVX 19.5 µM | T47D 24.4 µM | BT-549 19.4 µM | A549 25.3 µM | TK-10 > 100 µM | Hs-578T 32.8 µM | M14 20.6 µM

CC(C)(C)OC(=O)NC(CSCc1ccc(C(=O)c2ccccc2)cc1)C(=O)N1CCN(CCCCN2c3ccccc3Sc3cc(N=[N+]=[N-])ccc32)CC1 (stereo not drawn)
inactive: MDA-N > 100 µM | 786-0 > 100 µM | HOP-62 > 100 µM | CAKI-1 > 100 µM | DU-145 > 100 µM | OVCAR-8 > 100 µM | A498 > 100 µM | NCI/ADR-RES > 100 µM | OVCAR-5 > 100 µM | SK-OV-3 > 100 µM | K562 > 100 µM | HL-60 > 100 µM | NCI-H522 > 100 µM | HCC 2998 > 100 µM | SW-620 > 100 µM | SK-MEL-28 > 100 µM | MDA-MB-435 > 100 µM | IGROV-1 > 100 µM | OVCAR-4 > 100 µM | HOP-92 > 100 µM | MCF7 > 100 µM | SNB-19 > 100 µM | SNB-75 58.7 µM | Malme-3M > 100 µM | UO-31 > 100 µM | NCI-H460 > 100 µM | OVCAR-3 > 100 µM | COLO 205 > 100 µM | NCI-H226 > 100 µM | UACC-257 > 100 µM | NCI-H23 > 100 µM | U-251 > 100 µM | SN12C > 100 µM | SK-MEL-5 > 100 µM | HT-29 > 100 µM | HCT-116 > 100 µM | ACHN > 100 µM | MDA-MB-231 > 100 µM | PC-3 > 100 µM | CCRF-CEM > 100 µM | LOX IMVI > 100 µM | UACC-62 > 100 µM | RXF 393 > 100 µM | MOLT-4 > 100 µM | SF-268 > 100 µM | SF-539 > 100 µM | SK-MEL-2 > 100 µM | SF-295 > 100 µM | KM12 > 100 µM | EKVX > 100 µM | T47D > 100 µM | BT-549 > 100 µM | A549 > 100 µM | TK-10 > 100 µM | Hs-578T > 100 µM | M14 > 100 µM
> 100 µM: HCT-15
